Patent publication US10179161B2, “Compositions and methods for enhancing cardiac function in the neonate” (priority 2016, dated 2019)

Legend:
[1] = test system: supercomplex assembly (synthasomes); test: synthasome levels by clear native immunoblot in adult heart mitochondria; type: biochemical, mice; details: 0.5 mM; n=7
Experimental: Inhibition of CyPD should […] the assembly of the ETC into supercomplexes.
Adult heart mitochondria were used to show decreased supercomplex assembly after PTP opening and increased supercomplex assembly after PTP inhibition or deletion (FIG. 1). A: Mitochondrial permeability transition was induced by 60 μM free Ca^2+ (arrow) and was inhibited by 0.5 mM ADP or 200 nM CsA (top panel). Swelling, indicating PTP opening and a fall in absorbance, is reversible after the addition of 250 μM EGTA (arrow; bottom panel). […] The experimental conditions are summarized below the blot. […] Note that the ATP synthase IGA results a white reaction product, so the shading is correct. (N=4, * p≤0.05, ** p≤0.001 by T-test).

[2] = test system: adult animals; details: 10 mg/Kg IV; cited from earlier work
[3] = test system: CyPD; details: cited from earlier work

Molecule	Ca2+-induced PT decrease of synthasome levels [1]	effects of ischemia reperfusion injury in the heart [2]	potency as a CyPD inhibitor relative to CsA [3]	K0.5 as a CyPD inhibitor [3] [nM]
Nc1ncnc2c1ncn2[C@@H]1O[C@H](COP(=O)(O)OP(=O)(O)O)[C@@H](O)[C@H]1O [ADP]	inhibited			
Alisporivir		ameliorate	about as potent as CsA	
CC[C@H]1C[C@H](C)[C@@]2(NC1=O)O[C@@H](C[C@H](O)[C@@H](C)CC/C=C/C=C(\C)[C@@H]1C/C=C/C=C/[C@H](O)[C@H](C)[C@@H](O)[C@@H](CCC(C)=O)C(=O)N[C@@H](C(C)C)C(=O)N[C@@H](Cc3cccc(O)c3)C(=O)N3CCC[C@H](N3)C(=O)O1)[C@H](C)[C@H](O)[C@@H]2C [Sangliferin A, Sanglifehrin A]			more potent	2
